# pIC50: −log10 of the molar value.
# Molecular target: ASK1 kinase (Homo sapiens (Human), UniProt Q99683)
# Assay: HTRF KinEASE assay of ASK1 kinase activity inhibition
# Assay type: biochemical
# Conditions: 5 nM ASK1, 1 uM STK3 peptide substrate, 100 uM ATP, TR-FRET readout
# Description: The ability (IC50) of compounds to inhibit ASK1 kinase activity was determined by HTRF® KinEASE™ Assay System. ASK1 was purchased from Thermofisher (Catalogue #PV4011), ATP was purchased from Sigma (Catalogue #A7699), HTRF® KinEASE™ Assay System was obtained from Cisbio (Bedford, Mass.). ½ Area plate was purchased from Perkin Elmer (Catalogue ##6005560). HTRF® KinEASE™-STK is a generic method for measuring serine/threonine kinase activities using a time-resolved fluorescence resonance energy transfer (TR-FRET) immunoassay. The IC50 value for each compound was determined in the presence of compound (various concentration from 0 to 10 μM) and a fixed amount of ATP and peptide substrates. The test compound, 1 uM STK3 peptide substrate, and 5 nM of ASK1 kinase are incubated with kinase reaction buffer containing 50 mM HEPES pH 7.5, 0.01% BRIJ-35, 10 mM MgCl2, and 1 mM EGTA for 30 minutes. 100 uM ATP is added to start kinase reaction and incubated for 3 hours. The STK3-antibody labeled with Eu^3+-Cryptate and 125 nM streptavidin-XL665 are mixed in a single addition with stop reagents provided by the Cisbio kit used to stop the kinase reaction. Fluorescence is detected using an Envision Multilabeled 2014 reader from PerkinElmer. The Fluorescence is measured at 615 nm (Cryptate) and 665 nm (XL665) and a ratio of 665 nm/615 nm is calculated for each well. The resulting TR-FRET is proportional to the phosphorylation level. Staurosporine was used as the positive control. IC50 was determined by XLfit 5.3. By using above method, the inhibition of ASK1 was tested for the compound of formula (I). IC50 ranges are as follows: A<1 nM; 1 nM<B<10 nM; 10 nM<C<100 nM; 100 nM<D<1 μM; E>1 μM.
# Chain of ASK1 kinase (Q99683 whole entry): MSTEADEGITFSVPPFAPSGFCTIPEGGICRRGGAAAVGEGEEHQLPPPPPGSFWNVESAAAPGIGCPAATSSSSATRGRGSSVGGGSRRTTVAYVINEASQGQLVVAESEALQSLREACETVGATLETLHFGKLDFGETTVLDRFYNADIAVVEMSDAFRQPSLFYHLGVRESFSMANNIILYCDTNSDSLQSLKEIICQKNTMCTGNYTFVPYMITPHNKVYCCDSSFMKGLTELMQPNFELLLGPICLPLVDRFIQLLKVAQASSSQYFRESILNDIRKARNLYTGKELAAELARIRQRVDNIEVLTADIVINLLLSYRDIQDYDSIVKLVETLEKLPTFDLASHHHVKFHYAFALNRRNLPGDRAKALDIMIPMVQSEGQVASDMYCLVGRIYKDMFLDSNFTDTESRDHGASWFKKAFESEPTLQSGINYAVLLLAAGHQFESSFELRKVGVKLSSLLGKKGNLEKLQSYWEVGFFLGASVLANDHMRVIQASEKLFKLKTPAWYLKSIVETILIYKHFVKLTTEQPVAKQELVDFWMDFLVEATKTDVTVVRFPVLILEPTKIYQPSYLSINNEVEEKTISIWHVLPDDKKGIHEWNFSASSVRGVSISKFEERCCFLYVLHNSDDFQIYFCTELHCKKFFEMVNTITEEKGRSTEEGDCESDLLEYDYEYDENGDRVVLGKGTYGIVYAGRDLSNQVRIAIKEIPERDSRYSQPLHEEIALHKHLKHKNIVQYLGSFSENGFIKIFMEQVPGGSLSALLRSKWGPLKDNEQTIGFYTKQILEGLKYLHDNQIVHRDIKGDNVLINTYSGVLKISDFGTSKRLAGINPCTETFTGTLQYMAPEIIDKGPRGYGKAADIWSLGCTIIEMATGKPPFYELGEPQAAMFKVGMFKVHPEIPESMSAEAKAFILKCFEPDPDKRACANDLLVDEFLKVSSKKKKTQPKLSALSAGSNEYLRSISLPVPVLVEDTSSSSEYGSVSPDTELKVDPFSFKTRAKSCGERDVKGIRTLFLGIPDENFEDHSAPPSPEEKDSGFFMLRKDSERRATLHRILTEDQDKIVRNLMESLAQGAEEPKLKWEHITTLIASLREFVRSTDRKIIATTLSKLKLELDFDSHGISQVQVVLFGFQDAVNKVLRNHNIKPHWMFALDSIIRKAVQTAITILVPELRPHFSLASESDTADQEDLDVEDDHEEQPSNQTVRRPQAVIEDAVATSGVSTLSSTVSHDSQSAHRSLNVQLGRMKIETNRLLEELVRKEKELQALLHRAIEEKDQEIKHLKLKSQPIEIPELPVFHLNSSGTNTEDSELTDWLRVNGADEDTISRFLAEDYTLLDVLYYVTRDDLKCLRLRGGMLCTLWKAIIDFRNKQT
row,pIC50,SMILES
1,7.00 to 8.00,Cc1cc(F)c(C(=O)Nc2cccc(-c3nnnn3C(C)C)n2)cc1-c1ccc(C2CC2)s1 [Example 69]
2,8.00 to 9.00,Cc1cc(F)c(C(=O)Nc2cccc(-c3nnnn3[C@H](C)CO)n2)cc1-c1ccc(C2CC2)s1 [Example 70]
3,7.00 to 8.00,Cc1cc(F)c(C(=O)Nc2cccc(-c3nnnn3C(C)C)n2)cc1-c1cc(C2CC2)on1 [Example 71]
4,8.00 to 9.00,COc1cc(C)c(-c2cnn(C)c2)cc1C(=O)Nc1cccc(-c2nnnn2C(C)C)n1 [Example 73]
5,8.00 to 9.00,COc1cc(C)c(-c2cnn(C)c2)cc1C(=O)Nc1cccc(-n2nnnc2C(C)C)n1 [Example 74]
6,> 9.00,COc1cc(C)c(-c2cnn(C3CC3)c2)cc1C(=O)Nc1cccc(-c2nnnn2C(C)C)n1 [Example 75]
7,> 9.00,COc1cc(C)c(-c2cnn(C3CC3)c2)cc1C(=O)Nc1cccc(-n2nnnc2C(C)C)n1 [Example 76]
8,> 9.00,"COc1cc(C)c(-c2cnn(C3CC3)c2)cc1C(=O)Nc1cccc(-c2nnnn2[C@H](C)CO)n1 [Example 77, 5-(1-cyclopropyl-1H-pyrazol-4-yl)-N-(6-[1-[(2R)-1-hydroxypropan-2-yl]-1H-1,2,3,4-tetrazol-5-yl]pyridin-2-yl)-2-methoxy-4-methylbenzamide]"
9,8.00 to 9.00,COc1cc(C)c(-c2ccn(C(C)C)n2)cc1C(=O)Nc1cccc(-c2nnnn2C(C)C)n1 [Example 78]
10,7.00 to 8.00,COc1cc(C)c(-c2ccn(C(C)C)n2)cc1C(=O)Nc1cccc(-n2nnnc2C(C)C)n1 [Example 79]
11,> 9.00,COc1cc(C)c(-c2ccn(C(C)C)n2)cc1C(=O)Nc1cccc(-c2nnnn2[C@H](C)CO)n1 [Example 80]
12,8.00 to 9.00,Cc1cc(F)c(C(=O)Nc2cccc(-c3nnnn3[C@H]3CCOC3)n2)cc1-c1cnn(C2CC2)c1 [Example 81]
13,8.00 to 9.00,Cc1cc(F)c(C(=O)Nc2cccc(-c3nnnn3[C@@H]3CCOC3)n2)cc1-c1cnn(C2CC2)c1 [Example 82]
14,8.00 to 9.00,Cc1cc(F)c(C(=O)Nc2cccc(-c3nnnn3[C@H]3CCC[C@@H]3O)n2)cc1-c1cnn(C2CC2)c1 [Example 83]
15,8.00 to 9.00,Cc1cc(F)c(C(=O)Nc2cccc(-c3nnnn3[C@@H]3CCC[C@@H]3O)n2)cc1-c1cnn(C2CC2)c1 [Example 84]
